# Measured values as given in PubChem BioAssay AID1963971 (Molecular Pharmacology Branch, DTP, NCI, 2024).
# Values joined by “and” are separate entries in the source; they are usually repeats but may differ in a detail not shown here. Equal entries are not always repeated.
# Tested on: 953936-095-R-J2-PDC spheroids with HUVEC/MSC, viability
# Experiment: Anticancer human tumor 953936-095-R-J2-PDC patient-derived cervical squamous cell carcinoma cell line growth inhibition [PI3K]
# Settings: for viability, T/C: stronger effect = lower value
# Summary of the method: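 High-throughput combination screen: PI3K inhibitors crossed with targeted small molecules on complex spheroids of tumor cells, HUVEC and MSCs at 37 degrees C, 5% CO2. Top concentration was at or near clinical Cmax (otherwise 10 microM), with half-log decrements.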
# [1] = curve of first compound, second compound 0.0316 µM
# [2] = curve of first compound, second compound 0.1 µM
# [3] = curve of first compound, second compound 0.316 µM
# [4] = curve of first compound, second compound 1 µM
# [5] = second compound 0.0316 µM, first compound 0.0316 µM
# [6] = second compound 0.0316 µM, first compound 0.1 µM
# [7] = second compound 0.0316 µM, first compound 0.316 µM
# [8] = second compound 0.0316 µM, first compound 1 µM
# [9] = second compound 0.0316 µM, first compound 3.16 µM
# [10] = second compound 0.0316 µM, first compound 10 µM
# [11] = second compound 0.1 µM, first compound 0.0316 µM
# [12] = second compound 0.1 µM, first compound 0.1 µM
# [13] = second compound 0.1 µM, first compound 0.316 µM
# [14] = second compound 0.1 µM, first compound 1 µM
# [15] = second compound 0.1 µM, first compound 3.16 µM
# [16] = second compound 0.1 µM, first compound 10 µM
# [17] = second compound 0.316 µM, first compound 0.0316 µM
# [18] = second compound 0.316 µM, first compound 0.1 µM
# [19] = second compound 0.316 µM, first compound 0.316 µM
# [20] = second compound 0.316 µM, first compound 1 µM
# [21] = second compound 0.316 µM, first compound 3.16 µM
# [22] = second compound 0.316 µM, first compound 10 µM
# [23] = second compound 1 µM, first compound 0.0316 µM
# [24] = second compound 1 µM, first compound 0.1 µM
# [25] = second compound 1 µM, first compound 0.316 µM
# [26] = second compound 1 µM, first compound 1 µM
# [27] = second compound 1 µM, first compound 3.16 µM
# [28] = second compound 1 µM, first compound 10 µM
# [29] = curve of first compound, second compound 3.16 µM
# [30] = curve of first compound, second compound 10 µM
# [31] = second compound 3.16 µM, first compound 0.0316 µM
# [32] = second compound 3.16 µM, first compound 0.1 µM
# [33] = second compound 3.16 µM, first compound 0.316 µM
# [34] = second compound 3.16 µM, first compound 1 µM
# [35] = second compound 10 µM, first compound 0.0316 µM
# [36] = second compound 10 µM, first compound 0.1 µM
# [37] = second compound 10 µM, first compound 0.316 µM
# [38] = second compound 10 µM, first compound 1 µM
# [39] = second compound 3.16 µM, first compound 3.16 µM
# [40] = second compound 3.16 µM, first compound 10 µM
# [41] = second compound 10 µM, first compound 3.16 µM
# [42] = second compound 10 µM, first compound 10 µM
# 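Further: spheroids exposed to compounds for seven days before read-out.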
smiles,measurement,setting,value
CCCS(=O)(=O)Nc1ccc(F)c(C(=O)c2c[nH]c3ncc(-c4ccc(Cl)cc4)cc23)c1F + COc1c(OCCCN2CCOCC2)ccc2c3n(c(=NC(=O)c4cnc(N)nc4)nc12)CCN3,IC50,"curve of first compound, second compound 0.00316 µM",5050 nM
same,IC50,"curve of first compound, second compound 0.01 µM",4630 nM
same,IC50,[1],< 31.6 nM
same,IC50,[2],< 31.6 nM
same,IC50,[3],< 31.6 nM
same,IC50,[4],< 31.6 nM
same,"viability, T/C","second compound 0.00316 µM, first compound 0.0316 µM",81.3%
same,"viability, T/C","second compound 0.00316 µM, first compound 0.1 µM",94.1%
same,"viability, T/C","second compound 0.00316 µM, first compound 0.316 µM",85.1%
same,"viability, T/C","second compound 0.00316 µM, first compound 1 µM",93.1%
same,"viability, T/C","second compound 0.00316 µM, first compound 3.16 µM",83.7%
same,"viability, T/C","second compound 0.00316 µM, first compound 10 µM",0.64%
same,"viability, T/C","second compound 0.01 µM, first compound 0.0316 µM",73.6%
same,"viability, T/C","second compound 0.01 µM, first compound 0.1 µM",72.5%
same,"viability, T/C","second compound 0.01 µM, first compound 0.316 µM",73.8%
same,"viability, T/C","second compound 0.01 µM, first compound 1 µM",78.4%
same,"viability, T/C","second compound 0.01 µM, first compound 3.16 µM",74.5%
same,"viability, T/C","second compound 0.01 µM, first compound 10 µM",0.66%
same,"viability, T/C",[5],50.7%
same,"viability, T/C",[6],46%
same,"viability, T/C",[7],40.8%
same,"viability, T/C",[8],45.7%
same,"viability, T/C",[9],37.6%
same,"viability, T/C",[10],2.52%
same,"viability, T/C",[11],18.3%
same,"viability, T/C",[12],17.4%
same,"viability, T/C",[13],17.1%
same,"viability, T/C",[14],18.9%
same,"viability, T/C",[15],17.3%
same,"viability, T/C",[16],0.92%
same,"viability, T/C",[17],7.34%
same,"viability, T/C",[18],5.95%
same,"viability, T/C",[19],6.85%
same,"viability, T/C",[20],7.94%
same,"viability, T/C",[21],7.74%
same,"viability, T/C",[22],1.13%
same,"viability, T/C",[23],1.84%
same,"viability, T/C",[24],1.61%
same,"viability, T/C",[25],1.73%
same,"viability, T/C",[26],2.48%
same,"viability, T/C",[27],2.83%
same,"viability, T/C",[28],0.45%
CCN1CCN(Cc2ccc(Nc3ncc(F)c(-c4cc(F)c5nc(C)n(C(C)C)c5c4)n3)nc2)CC1 + Cc1nc(NC(=O)N2CCCC2C(N)=O)sc1-c1ccnc(C(C)(C)C(F)(F)F)c1,IC50,[1],> 1000 nM
same,IC50,[2],> 1000 nM
same,IC50,[3],> 1000 nM
same,IC50,[4],< 3.16 nM
same,IC50,[29],< 3.16 nM
same,IC50,[30],< 3.16 nM
same,"viability, T/C","second compound 0.0316 µM, first compound 0.00316 µM",89.8%
same,"viability, T/C","second compound 0.0316 µM, first compound 0.01 µM",93.8%
same,"viability, T/C",[5],88%
same,"viability, T/C",[6],88.6%
same,"viability, T/C",[7],87.1%
same,"viability, T/C",[8],75.5%
same,"viability, T/C","second compound 0.1 µM, first compound 0.00316 µM",84.8%
same,"viability, T/C","second compound 0.1 µM, first compound 0.01 µM",83.4%
same,"viability, T/C",[11],83.4%
same,"viability, T/C",[12],78.3%
same,"viability, T/C",[13],76%
same,"viability, T/C",[14],73.4%
same,"viability, T/C","second compound 0.316 µM, first compound 0.00316 µM",66.3%
same,"viability, T/C","second compound 0.316 µM, first compound 0.01 µM",63.4%
same,"viability, T/C",[17],65.9%
same,"viability, T/C",[18],55.8%
same,"viability, T/C",[19],58.6%
same,"viability, T/C",[20],53%
same,"viability, T/C","second compound 1 µM, first compound 0.00316 µM",47.6%
same,"viability, T/C","second compound 1 µM, first compound 0.01 µM",46%
same,"viability, T/C",[23],43.7%
same,"viability, T/C",[24],41.8%
same,"viability, T/C",[25],38.3%
same,"viability, T/C",[26],36.7%
same,"viability, T/C","second compound 3.16 µM, first compound 0.00316 µM",26.6%
same,"viability, T/C","second compound 3.16 µM, first compound 0.01 µM",26.3%
same,"viability, T/C",[31],24.4%
same,"viability, T/C",[32],23.6%
same,"viability, T/C",[33],23.3%
same,"viability, T/C",[34],22.2%
same,"viability, T/C","second compound 10 µM, first compound 0.00316 µM",10.8%
same,"viability, T/C","second compound 10 µM, first compound 0.01 µM",11.2%
same,"viability, T/C",[35],10.5%
same,"viability, T/C",[36],9.34%
same,"viability, T/C",[37],9.59%
same,"viability, T/C",[38],11.1%
CCCS(=O)(=O)Nc1ccc(F)c(C(=O)c2c[nH]c3ncc(-c4ccc(Cl)cc4)cc23)c1F + Cc1nc(NC(=O)N2CCCC2C(N)=O)sc1-c1ccnc(C(C)(C)C(F)(F)F)c1,IC50,[1],5030 nM
same,IC50,[2],4880 nM
same,IC50,[3],4280 nM
same,IC50,[4],< 31.6 nM
same,IC50,[29],< 31.6 nM
same,IC50,[30],< 31.6 nM
same,"viability, T/C",[5],90.7%
same,"viability, T/C",[6],95.1%
same,"viability, T/C",[7],95.8%
same,"viability, T/C",[8],99.2%
same,"viability, T/C",[9],83.2%
same,"viability, T/C",[10],0.75%
same,"viability, T/C",[11],82.6%
same,"viability, T/C",[12],88.3%
same,"viability, T/C",[13],86.1%
same,"viability, T/C",[14],92.9%
same,"viability, T/C",[15],80%
same,"viability, T/C",[16],0.68%
same,"viability, T/C",[17],64.6%
same,"viability, T/C",[18],65.1%
same,"viability, T/C",[19],66.9%
same,"viability, T/C",[20],73.8%
same,"viability, T/C",[21],68.2%
same,"viability, T/C",[22],0.57%
same,"viability, T/C",[23],46.6%
same,"viability, T/C",[24],45.9%
same,"viability, T/C",[25],47%
same,"viability, T/C",[26],50.2%
same,"viability, T/C",[27],37.3%
same,"viability, T/C",[28],0.59%
same,"viability, T/C",[31],26.6%
same,"viability, T/C",[32],26.2%
same,"viability, T/C",[33],27.5%
same,"viability, T/C",[34],25.5%
same,"viability, T/C",[39],20.2%
same,"viability, T/C",[40],1.4%
same,"viability, T/C",[35],11.7%
same,"viability, T/C",[36],12.8%
same,"viability, T/C",[37],13.7%
same,"viability, T/C",[38],14.2%
same,"viability, T/C",[41],9.62%
same,"viability, T/C",[42],0.42%
CCN1CCN(Cc2ccc(Nc3ncc(F)c(-c4cc(F)c5nc(C)n(C(C)C)c5c4)n3)nc2)CC1,"viability, T/C",compound 0.00316 µM,98.4% [middle of 4 runs]
same,"viability, T/C",compound 0.01 µM,96.4% [middle of 4 runs]
same,"viability, T/C",compound 0.0316 µM,93.1% [middle of 4 runs]
same,"viability, T/C",compound 0.1 µM,100% and 101% (2×) and 89.5%
same,"viability, T/C",compound 0.316 µM,88.2% [middle of 4 runs]
same,"viability, T/C",compound 1 µM,85.2% [middle of 4 runs]
same,IC50,curve of compound,> 1000 nM
C#Cc1c(F)ccc2cc(O)cc(-c3ncc4c(N5CC6CCC(C5)N6)nc(OCC56CCCN5CC(F)C6)nc4c3F)c12 (stereo not given) + Cc1nc(NC(=O)N2CCCC2C(N)=O)sc1-c1ccnc(C(C)(C)C(F)(F)F)c1,IC50,[1],> 10000 nM
same,IC50,[2],> 10000 nM
same,IC50,[3],1350 nM
same,IC50,[4],< 31.6 nM
same,IC50,[29],< 31.6 nM
same,IC50,[30],< 31.6 nM
same,"viability, T/C",[5],97.6%
same,"viability, T/C",[6],102%
same,"viability, T/C",[7],92.3%
same,"viability, T/C",[8],82.2%
same,"viability, T/C",[9],71.3%
same,"viability, T/C",[10],67.9%
same,"viability, T/C",[11],79.7%
same,"viability, T/C",[12],81.7%
same,"viability, T/C",[13],92.8%
same,"viability, T/C",[14],74.6%
same,"viability, T/C",[15],61.9%
same,"viability, T/C",[16],51.9%
same,"viability, T/C",[17],64.7%
same,"viability, T/C",[18],59.1%
same,"viability, T/C",[19],57%
same,"viability, T/C",[20],49.4%
same,"viability, T/C",[21],48.9%
same,"viability, T/C",[22],38.2%
same,"viability, T/C",[23],43.8%
same,"viability, T/C",[24],42.3%
same,"viability, T/C",[25],39%
same,"viability, T/C",[26],34.7%
same,"viability, T/C",[27],28.3%
same,"viability, T/C",[28],21.6%
same,"viability, T/C",[31],25.2%
same,"viability, T/C",[32],23.8%
same,"viability, T/C",[33],22.5%
same,"viability, T/C",[34],17.2%
same,"viability, T/C",[39],12.3%
same,"viability, T/C",[40],10.1%
same,"viability, T/C",[35],10.3%
same,"viability, T/C",[36],10%
same,"viability, T/C",[37],8.35%
same,"viability, T/C",[38],7.39%
same,"viability, T/C",[41],6.74%
same,"viability, T/C",[42],4.92%
